Experimental data as given in patent publication US20100016285A1, “HETEROCYCLIDENE-N-(ARYL) ACETAMIDE DERIVATIVE” (MOCHIDA PHARMACEUTICAL CO., LTD., priority 2007, published 2010).

These compounds were tested against T1, human TRPV1 (Homo sapiens, UniProt Q8NER1) (assay: Capsaicin-induced Ca influx in transformed CHO cells, FDSS-6000 (b-1), A2 value). Details: concentration shifting the capsaicin concentration-reaction curve two times rightward; CHO cells expressing TRPV1.
T1 construct: expressed in transfected cells; host or cells: CHO-K1 cells, pCAGGS vector, clones selected by limiting dilution
T1 sequence (Q8NER1 whole entry): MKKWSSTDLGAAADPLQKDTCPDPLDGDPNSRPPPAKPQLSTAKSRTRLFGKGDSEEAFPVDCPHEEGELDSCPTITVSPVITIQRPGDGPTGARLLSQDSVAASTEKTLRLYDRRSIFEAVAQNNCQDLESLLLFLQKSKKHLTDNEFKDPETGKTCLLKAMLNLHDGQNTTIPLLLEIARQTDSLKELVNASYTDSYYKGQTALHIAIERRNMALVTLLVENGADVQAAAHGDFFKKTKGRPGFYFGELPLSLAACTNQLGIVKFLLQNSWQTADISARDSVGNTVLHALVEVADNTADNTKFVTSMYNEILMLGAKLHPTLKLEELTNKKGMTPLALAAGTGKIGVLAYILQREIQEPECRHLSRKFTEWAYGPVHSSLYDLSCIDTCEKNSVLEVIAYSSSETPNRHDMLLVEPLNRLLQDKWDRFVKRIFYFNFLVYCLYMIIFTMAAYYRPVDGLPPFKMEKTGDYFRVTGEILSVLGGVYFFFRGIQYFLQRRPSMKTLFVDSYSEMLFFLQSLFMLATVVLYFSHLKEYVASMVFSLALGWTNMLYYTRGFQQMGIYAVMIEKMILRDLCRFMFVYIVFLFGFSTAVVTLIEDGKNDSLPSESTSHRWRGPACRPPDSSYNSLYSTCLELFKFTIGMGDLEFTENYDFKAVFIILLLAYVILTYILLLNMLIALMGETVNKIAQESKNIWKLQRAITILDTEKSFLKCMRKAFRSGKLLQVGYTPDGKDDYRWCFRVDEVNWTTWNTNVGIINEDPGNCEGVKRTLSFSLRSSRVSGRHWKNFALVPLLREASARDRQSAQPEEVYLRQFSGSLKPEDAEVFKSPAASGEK
Assay type: cell-based
From the text: (1) Measurement of Capsaicin-Induced Ca Influx in a Transformed CHO Cell Line Expressing Human TRPV1
(a) Establishment of a Transformed CHO Cell Line Expressing Human and Rat TRPV1
Human and rat vanilloid receptor 1 (hTRPV1 and rTRPV1) cDNA was cloned from human brain and rat dorsal root ganglion, respectively. The cloned TRPV1 cDNA was incorporated in a pCAGGS vector. The vector was introduced to a CHO-K1 cell line, thus performing transformation. Clones obtained by limiting dilution were stimulated with capsaicin. Clones with a high responsiveness were selected using an increase in the Ca concentration as an indicator. The selected clones were used for the following experiment.
(b-1) Measurement of Ca Influx using FDSS-6000
The transformed CHO cells expressing human or rat TRPV1 were seeded in a 96-well plate (with black walls and transparent bottoms, manufactured by Greiner) at a density of 40,000 cells per well. The cells were cultured at 37° C. in 5% CO2 atmosphere for one night. A loading solution of FLIPR Calcium 3 assay kit (manufactured by Molecular Devices Corporation) containing 2.5 mmol/L of probenecid was then added to each of the wells in the same amount as the culture medium, and the cells were cultured at 37° C. for 60 minutes. For three minutes after the cells were stimulated with capsaicin (1 nmol/L to 1 μmol/L), the change of the intracellular Ca concentration was measured using FDSS-6000 (λex: 480 nm, λem: […], manufactured by Hamamatsu Photonics K.K.). The integrated values of the increase rate of the intracellular Ca concentration were calculated for a group treated with the compounds of the present invention and a group treated with a vehicle, thus allowing capsaicin concentration-reaction curves to be obtained. A concentration (A2 value) of each of the compounds of the present invention, at which the capsaicin concentration-reaction curve obtained when the cells were treated with the vehicle was shifted two times rightward, was calculated. The inhibitory effects of the test compounds were compared using this value as an indicator.

Row | SMILES | A2 value
1 | O=C(/C=C1\CCCOc2cc(C(F)(F)F)ccc21)Nc1ccc2c(c1)NC(=O)C(N1CCCOCC1)C2 (centres unmarked) [EXAMPLE 53, (E)-2-(8-trifluoromethyl-3,4-dihydrobenzo[b]oxepin-5(2H)-ylidene)-N-(3-([1,4]oxazepan-4-yl)-3,4-dihydro-2(1H)-quinolinon-7-yl)acetamide] | A (A2 value of less than 100 nM)
2 | CN(C1CCOCC1)C1Cc2ccc(NC(=O)/C=C3\CCCOc4cc(C(F)(F)F)ccc43)cc2NC1=O (centres unmarked) [EXAMPLE 57, (E)-2-(8-trifluoromethyl-3,4-dihydrobenzo[b]oxepin-5(2H)-ylidene)-N-(3-(N-methyl-N-(4-tetrahydropyranyl)amino)-3,4-dihydro-2(1H)-quinolinon-7-yl)acetamide] | B (A2 value of 100 nM or more)
3 | CC1(C)Oc2ccc(NC(=O)/C=C3\CCCOc4cc(C(F)(F)F)ccc43)cc2NC1=O [Example 1, (E)-2-(8-trifluoromethyl-3,4-dihydrobenzo[b]oxepin-5(2H)-ylidene)-N-(2,2-dimethyl-4H-benzo[1,4]oxazin-3-on-6-yl)acetamide] | A (A2 value of less than 100 nM)
4 | CC1Oc2ccc(NC(=O)/C=C3\CCCOc4cc(C(F)(F)F)ccc43)cc2NC1=O (centres unmarked) [Example 2, (E)-2-(8-trifluoromethyl-3,4-dihydrobenzo[b]oxepin-5(2H)-ylidene)-N-(2-methyl-4H-benzo[1,4]oxazin-3-on-6-yl)acetamide] | A (A2 value of less than 100 nM)
5 | O=C(/C=C1\CCCOc2cc(C(F)(F)F)ccc21)Nc1ccc2c(c1)NC(=O)C(CCO)O2 (centres unmarked) [Example 3, (E)-2-(8-trifluoromethyl-3,4-dihydrobenzo[b]oxepin-5(2H)-ylidene)-N-(2-(2-hydroxyethyl)-4H-benzo[1,4]oxazin-3-on-6-yl)acetamide] | A (A2 value of less than 100 nM)
6 | O=C(/C=C1\CCCOc2cc(C(F)(F)F)ccc21)Nc1ccc2c(c1)NC(=O)CS2 [Example 4, (E)-2-(8-trifluoromethyl-3,4-dihydrobenzo[b]oxepin-5(2H)-ylidene)-N-(2H-benzo[1,4]thiazin-3(4H)-on-6-yl)acetamide] | A (A2 value of less than 100 nM)

The remaining lines, values ahead:

Row | A2 value | SMILES
7 | A (A2 value of less than 100 nM) | O=C(/C=C1\CCCOc2cc(C(F)(F)F)ccc21)Nc1ccc2c(c1)NC(=O)C(N1CC[C@@H](O)C1)C2 (stereo partly drawn) [EXAMPLE 48, (E)-2-(8-trifluoromethyl-3,4-dihydrobenzo[b]oxepin-5(2H)-ylidene)-N-(3-((3S)-hydroxypyrrolidin-1-yl)-3,4-dihydro-2(1H)-quinolinon-7-yl)acetamide]
8 | B (A2 value of 100 nM or more) | O=C(/C=C1\CCCOc2cc(C(F)(F)F)ccc21)Nc1ccc2c(c1)NC(=O)C(N1CCNCC1)C2 (centres unmarked) [EXAMPLE 52, (E)-2-(8-trifluoromethyl-3,4-dihydrobenzo[b]oxepin-5(2H)-ylidene)-N-(3-(1-piperazinyl)-3,4-dihydro-2(1H)-quinolinon-7-yl)acetamide]
9 | A (A2 value of less than 100 nM) | O=C(/C=C1\CCCOc2cc(C(F)(F)F)ccc21)Nc1ccc2c(c1)NC(=O)C(N1CCSCC1)C2 (centres unmarked) [EXAMPLE 54, (E)-2-(B-trifluoromethyl-3,4-dihydrobenzo[b]oxepin-5(2H)-ylidene)-N-(3-(4-thiomorpholinyl)-3,4-dihydro-2(1H)-quinolinon-7-yl)acetamide]
10 | A (A2 value of less than 100 nM) | COC1CCN(C2Cc3ccc(NC(=O)/C=C4\CCCOc5cc(C(F)(F)F)ccc54)cc3NC2=O)CC1 (centres unmarked) [EXAMPLE 55, (E)-2-(8-trifluoromethyl-3,4-dihydrobenzo[b]oxepin-5(2H)-ylidene)-N-(3-(4-methoxy-1-piperidinyl)-3,4-dihydro-2(1H)-quinolinon-7-yl)acetamide]
11 | A (A2 value of less than 100 nM) | CO[C@@H]1CCN(C2Cc3ccc(NC(=O)/C=C4\CCCOc5cc(C(F)(F)F)ccc54)cc3NC2=O)C1 (stereo partly drawn) [EXAMPLE 56, (E)-2-(8-trifluoromethyl-3,4-dihydrobenzo[b]oxepin-5(2H)-ylidene)-N-(3-((3S)-methoxypyrrolidin-1-yl)-3,4-dihydro-2(1H)-quinolinon-7-yl)acetamide]
